Data published in patent publication US10189809B2, “SGC stimulators” (Ironwood Pharmaceuticals, Inc., priority 2010, dated 2019).
pEC50: −log10 of the molar value. Like-named read-outs stand apart in the source and are kept apart here.

How the values were obtained:
Thoracic aortic rings = test: Alternative thoracic aortic rings assay (Example 19b; resting tension as 100% inhibition); parameters: species or system rat; settings: Rattus norvegicus, Table 10B; for inhibition at 1 µM: read-out: Percent Relaxation at 1 μM; for inhibition at 3 µM: read-out: Percent Relaxation at 3 μM; for pEC50: read-out: Aortic Ring EC50; for inhibition at 10 µM: read-out: Percent Relaxation at 10 μM
Protocol: Thoracic aortic rings were dissected from anesthetized (isoflurane) male Sprague-Dawley rats weighing 275-299 g. Tissues were immediately transferred to ice-cold Krebs-Henseleit solution, which had been aerated with 95% O2 and 5% CO2 for 30 minutes. Following removal of connective tissue, aortic sections were cut into 4 rings (˜2 mm each) and suspended on 2 L-shaped hooks, with one hook fixed at the bottom of the tissue bath (Schuler Organ Bath, Harvard Apparatus) and the other connected to a force transducer (F30 Force Transducer, Harvard Apparatus). Baths contained Krebs Henseleit solution (10 mL) heated to 37° C. and aerated with 95% O2 and 5% CO2. Rings were brought to an initial tension of 0.3-0.5 g and gradually raised to a resting tension of 1.0 g over 60 minutes. Rings were rinsed with Krebs Henseleit solution (heated to 37° C. and aerated with 95% O2 and 5% CO2) at 15 minute intervals until a stable baseline was obtained. Rings were considered to be stable after a resting tension of 1.0 g was maintained (for approximately 10 minutes) without need for adjustment. Rings were then contracted with 100 ng/mL phenylephrine by adding 100 uL of a 10 μg/mL phenylephrine stock solution. Tissues achieving a stable contraction were then treated in a cumulative, dose dependent manner with test compounds prepared in dimethylsulfoxide (DMSO). In some cases, tissues were rinsed three times over a 5 minute period with Krebs-Heinseleit's solution (heated to 37° C. and aerated with 95% O2 and 5% CO2), allowed to stabilize at baseline, and then used for characterization of other test articles or DMSO effects. All data were collected using the HSE-ACAD software provided by Harvard Apparatus. […] EC50 values were calculated from concentration-response curves generated with GraphPad Prism Software.

[1] = target: T1, soluble guanylate cyclase (sGC) (Homo sapiens (Human), UniProt Q02108+Q02153); test: sGC-HEK-cGMP assay run in the absence of SNP (HEK WC assay); assay type: cell-based; settings: compound at 30 μM, absence of SNP
Method in brief: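 Intracellular cGMP was measured by LC/MS, using a standard curve, in HEK293 cells treated with compound for 10 min at 37° C after a 15 min 0.5 mM IBMX pretreatment, with no SNP present. Lysis and quench used 0.1 M HCl. EC50 values came from concentration-response fits.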

[2] = target: T1, soluble guanylate cyclase (sGC); test: sGC-HEK-cGMP assay run with SNP incubation (HEK WC assay); assay type: cell-based; settings: for HEK WC Assay (fold increase at 30 μM in the presence of 10 μM SNP): compound at 30 μM; for pEC50: in the presence of 10 uM SNP
Method in brief: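 EC50 values derive from concentration-response curves of intracellular cGMP in HEK293 cells, which express sGC endogenously. Compound and sodium nitroprusside were co-incubated 10 min at 37 °C after a 15-min 0.5 mM IBMX step, with 0.1 M HCl lysis and 1% DMSO vehicle.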

[3] = read-out: HEK WC Assay (% Emax at 1 μM with 10 uM SNP)
[4] = read-out: HEK WC Assay (% Emax at 10 μM with 10 uM SNP)
[5] = read-out: HEK WC Assay (% Emax at 30 μM with 10 uM SNP)

T1 sequence (Q02153 whole entry): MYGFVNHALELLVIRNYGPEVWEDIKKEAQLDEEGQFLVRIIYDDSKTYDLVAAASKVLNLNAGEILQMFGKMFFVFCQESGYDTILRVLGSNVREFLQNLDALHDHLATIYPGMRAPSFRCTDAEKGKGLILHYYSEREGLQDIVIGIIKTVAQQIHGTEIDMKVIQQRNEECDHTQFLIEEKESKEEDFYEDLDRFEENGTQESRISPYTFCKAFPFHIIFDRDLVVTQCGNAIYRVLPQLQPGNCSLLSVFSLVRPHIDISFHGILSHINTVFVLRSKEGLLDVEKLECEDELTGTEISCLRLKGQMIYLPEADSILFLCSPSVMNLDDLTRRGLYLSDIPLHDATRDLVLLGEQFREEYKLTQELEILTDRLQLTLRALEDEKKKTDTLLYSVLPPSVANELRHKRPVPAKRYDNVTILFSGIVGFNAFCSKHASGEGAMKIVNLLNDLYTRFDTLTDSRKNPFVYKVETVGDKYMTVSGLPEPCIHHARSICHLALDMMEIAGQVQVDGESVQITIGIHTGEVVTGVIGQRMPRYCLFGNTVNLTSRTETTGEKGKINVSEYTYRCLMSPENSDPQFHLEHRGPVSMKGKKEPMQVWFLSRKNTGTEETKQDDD
T1 sequence (Q02108 whole entry): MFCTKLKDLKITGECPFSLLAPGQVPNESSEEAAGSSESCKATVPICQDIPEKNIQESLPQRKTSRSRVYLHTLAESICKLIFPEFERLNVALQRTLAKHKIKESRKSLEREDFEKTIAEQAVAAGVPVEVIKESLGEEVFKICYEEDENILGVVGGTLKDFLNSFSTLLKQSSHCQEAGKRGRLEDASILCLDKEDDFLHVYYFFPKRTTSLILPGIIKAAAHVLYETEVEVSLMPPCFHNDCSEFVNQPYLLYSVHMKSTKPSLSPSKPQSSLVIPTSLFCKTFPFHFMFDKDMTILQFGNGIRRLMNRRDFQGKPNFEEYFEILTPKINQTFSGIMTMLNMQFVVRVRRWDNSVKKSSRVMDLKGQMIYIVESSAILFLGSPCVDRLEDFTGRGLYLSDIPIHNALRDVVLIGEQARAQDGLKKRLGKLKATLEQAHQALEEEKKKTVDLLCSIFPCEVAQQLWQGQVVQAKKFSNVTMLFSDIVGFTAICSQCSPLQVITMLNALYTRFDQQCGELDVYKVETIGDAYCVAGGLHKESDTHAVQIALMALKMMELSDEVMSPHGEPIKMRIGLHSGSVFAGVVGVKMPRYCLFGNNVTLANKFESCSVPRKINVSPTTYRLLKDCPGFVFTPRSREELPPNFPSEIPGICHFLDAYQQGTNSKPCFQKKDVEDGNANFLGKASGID

SMILES | inhibition at 1 µM (Thoracic aortic rings) | inhibition at 3 µM (Thoracic aortic rings) | pEC50 (Thoracic aortic rings) | HEK WC Assay (fold increase at 30 μM in the absence of SNP) [1] | HEK WC Assay (fold increase at 30 μM in the presence of 10 μM SNP) [2] | pEC50 [2] | Emax [2, 3] | Emax [2, 4] | Emax [2, 5] | inhibition at 10 µM (Thoracic aortic rings)
Cc1ccccc1C(=O)Nc1cnc(-c2cc(-c3ccon3)n(Cc3ccccc3F)n2)nc1N [Compound I-184] | 80 to 100% | 100 to 120% | > 5.70 | E (E = 10 to <20 fold increase) | E (E = 10 to <20 fold increase) | > 4.70 | 60 to 80% | 100 to 120% | 80 to 100% | –
Nc1nc(-c2cc(-c3ccon3)n(Cc3ccccc3F)n2)ncc1NC(=O)c1ccccc1Cl [Compound I-185] | 60 to 80% | 100 to 120% | > 5.70 | E (E = 10 to <20 fold increase) | E (E = 10 to <20 fold increase) | > 4.70 | 60 to 80% | 80 to 100% | 100 to 120% | 100 to 120%
Nc1nc(-c2cc(-c3ncco3)n(Cc3ccccc3F)n2)ncc1NC(=O)c1ccccc1 [Compound I-186] | 60 to 80% | 80 to 100% | > 5.70 | D (D = 5 to <10 fold increase) | F (F = 20 to <30 fold increase) | > 4.70 | 60 to 80% | 60 to 80% | 80 to 100% | 100 to 120%
Nc1nc(-c2cc(-c3ccon3)n(Cc3ccccc3F)n2)ncc1NC(=O)c1cnco1 [Compound I-188] | 80 to 100% | 100 to 120% | > 5.70 | E (E = 10 to <20 fold increase) | F (F = 20 to <30 fold increase) | > 4.70 | 40 to 60% | 60 to 80% | 60 to 80% | 100 to 120%
CS(=O)(=O)c1cnc(-c2cc(-c3ccon3)n(Cc3ccccc3F)n2)nc1O [Compound I-196] | 60 to 80% | 80 to 100% | > 5.70 | C (C = 2 to <5 fold increase) | E (E = 10 to <20 fold increase) | > 4.70 | 20 to 40% | 60 to 80% | 80 to 100% | 80 to 100%
CC1(C(=O)Nc2cnc(-c3cc(-c4ccon4)n(Cc4ccccc4F)n3)nc2N)CC1 [Compound I-206] | 20 to 40% | 60 to 80% | > 5.70 | E (E = 10 to <20 fold increase) | F (F = 20 to <30 fold increase) | > 4.70 | 100 to 120% | 100 to 120% | 100 to 120% | 80 to 100%
Oc1nc(-c2cc(-c3ccon3)n(Cc3ccccc3F)n2)ncc1C(F)(F)F [Compound I-216] | 40 to 60% | 80 to 100% | > 5.70 | C (C = 2 to <5 fold increase) | E (E = 10 to <20 fold increase) | > 4.70 | 20 to 40% | 40 to 60% | 40 to 60% | 100 to 120%
O=S(=O)(c1ccccc1)c1cnc(-c2cc(-c3ccon3)n(Cc3ccccc3F)n2)nc1O [Compound I-217] | 40 to 60% | 60 to 80% | > 5.70 | D (D = 5 to <10 fold increase) | F (F = 20 to <30 fold increase) | > 4.70 | 60 to 80% | 100 to 120% | – | 80 to 100%
Nc1nc(-c2cc(-c3ccon3)n(Cc3ccccc3F)n2)ncc1NC(=O)C1(C(F)(F)F)CC1 [Compound I-237] | 60 to 80% | 80 to 100% | > 5.70 | E (E = 10 to <20 fold increase) | F (F = 20 to <30 fold increase) | > 4.70 | 80 to 100% | 100 to 120% | 100 to 120% | 100 to 120%
N#CC1(C(=O)Nc2cnc(-c3cc(-c4ccon4)n(Cc4ccccc4F)n3)nc2N)CC1 [Compound I-238] | 80 to 100% | 100 to 120% | > 5.70 | E (E = 10 to <20 fold increase) | E (E = 10 to <20 fold increase) | > 4.70 | 80 to 100% | 100 to 120% | 100 to 120% | 100 to 120%
CC(C)(C)C(=O)Nc1cnc(-c2cc(-c3ccon3)n(Cc3ccccc3F)n2)nc1N [Compound I-277] | 60 to 80% | 80 to 100% | > 5.70 | D (D = 5 to <10 fold increase) | E (E = 10 to <20 fold increase) | > 4.70 | 60 to 80% | 80 to 100% | 80 to 100% | 100 to 120%
Cc1csc(-c2cc(-c3ncccn3)nn2Cc2ccccc2F)n1 [Compound I-294] | 20 to 40% | 60 to 80% | > 5.70 | B (B = 1 to <2 fold increase) | D (D = 5 to <10 fold increase) | 4.22 to 4.40 | – | 20 to 40% | 20 to 40% | 100 to 120%
Nc1ccnc(-c2cc(-c3cnco3)n(Cc3ccccc3F)n2)n1 [Compound I-296] | 20 to 40% | 40 to 60% | – | C (C = 2 to <5 fold increase) | E (E = 10 to <20 fold increase) | > 4.70 | – | 20 to 40% | 60 to 80% | 80 to 100%
Fc1ccccc1Cn1nc(-c2ccccn2)cc1-c1ncon1 [Compound I-304] | 20 to 40% | 60 to 80% | > 5.70 | C (C = 2 to <5 fold increase) | E (E = 10 to <20 fold increase) | 4.40 to 4.70 | – | 20 to 40% | 40 to 60% | 80 to 100%
